Data taken from ChEMBL document CHEMBL3763116, “Synthesis and evaluation of colletoic acid core derivatives” (Eur J Med Chem, 2016).

Assays:
[1] = target: 11-beta-hydroxysteroid dehydrogenase 1 (Homo sapiens, UniProt P28845); experiment: Inhibition of 11beta-HSD1 (unknown origin) using cortisol as substrate assessed as NADPH formation by fluorescent plate reader analysis
[2] = test system: BJ; experiment: Cytotoxicity against human BJ cells after 72 hrs by Cell TitreGlo assay; assay type: cell-based
[3] = target: T1, 11-beta-hydroxysteroid dehydrogenase type 2 (Homo sapiens, UniProt P80365); experiment: Inhibition of full length human 11beta-HSD2 expressed in HEK293 cells using […] as substrate incubated for 2 hrs by HTRF assay in presence of NAD+; assay type: cell-based
T1 sequence (P80365 whole entry): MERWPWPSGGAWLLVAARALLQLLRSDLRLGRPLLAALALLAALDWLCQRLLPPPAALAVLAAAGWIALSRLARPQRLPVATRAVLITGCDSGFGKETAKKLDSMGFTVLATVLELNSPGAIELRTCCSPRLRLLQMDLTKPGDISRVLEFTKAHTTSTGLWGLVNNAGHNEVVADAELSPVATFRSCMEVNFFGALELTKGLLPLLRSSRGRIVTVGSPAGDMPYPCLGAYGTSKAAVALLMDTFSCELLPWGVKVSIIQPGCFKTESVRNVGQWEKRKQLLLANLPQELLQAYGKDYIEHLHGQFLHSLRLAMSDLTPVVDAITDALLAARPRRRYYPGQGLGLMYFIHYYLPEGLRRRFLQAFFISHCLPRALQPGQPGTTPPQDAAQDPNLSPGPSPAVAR

11-beta-hydroxysteroid dehydrogenase 1, sequence (P28845 whole entry): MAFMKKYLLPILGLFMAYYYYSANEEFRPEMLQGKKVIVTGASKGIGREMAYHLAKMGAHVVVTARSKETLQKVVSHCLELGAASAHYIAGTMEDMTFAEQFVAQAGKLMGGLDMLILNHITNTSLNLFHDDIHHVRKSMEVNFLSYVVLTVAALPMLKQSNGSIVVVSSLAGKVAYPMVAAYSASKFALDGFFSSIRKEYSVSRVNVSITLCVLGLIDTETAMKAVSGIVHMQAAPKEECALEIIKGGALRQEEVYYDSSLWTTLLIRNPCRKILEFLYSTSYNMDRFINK

Row | IC50 [1] | IC50 [3] | SMILES | EC50 [2]
1 | > 1000 µM |  | CC(C)C1=CC[C@H](CO)[C@]12CC[C@@](C)(O)[C@@H](O)C2 | > 90 µM
2 | 18 µM | > 1000 µM | CC(C)=CCC/C(C)=C/CNC(=O)[C@H]1CC=C(C(C)C)[C@]12C=CC(=O)CC2 | > 90 µM
3 | > 1000 µM | > 1000 µM | CC(C)C1=CC[C@H](CSc2nc3ccccc3o2)[C@@]12C=CC(=O)CC2 | > 90 µM
4 | 341 µM | > 1000 µM | CC(C)C1=CC[C@H](CN2C(=O)c3ccccc3S2(=O)=O)[C@@]12C=CC(=O)CC2 | > 90 µM
5 | > 1000 µM |  | C=C1C(=O)C[C@]2(C[C@@H]1OC(C)=O)[C@@H](C(=O)OCC)CC[C@H]2C(C)C | > 90 µM
6 | > 1000 µM |  | CC(C)(C)[Si](C)(C)OCCC1=CC[C@H](CO)[C@@]12C=CC(=O)CC2 | > 90 µM
7 | > 1000 µM |  | O=C1C=C[C@@]2(CC1)c1ccccc1C[C@@H]2CO | > 90 µM
8 | > 1000 µM |  | CC(C)[C@@H]1CC[C@H](CO)[C@]12CC[C@@](C)(O)[C@H]1O[C@H]12 | > 90 µM
9 | > 1000 µM |  | CC1=CC[C@@]2(CC1)C(C(C)C)=CC[C@@H]2CO | > 90 µM
10 | > 1000 µM |  | CC1=CC[C@H](CO)[C@@]12C=CC(=O)CC2 | > 90 µM
11 | > 1000 µM |  | C[C@@]1(O)CC[C@]23c4ccccc4C[C@@H]2CO[C@@H]3[C@@H]1O | > 90 µM
12 | > 1000 µM |  | CCOC(=O)[C@H]1CC[C@@H](C(C)C)[C@]12C=CC(=O)CC2 | > 90 µM
13 | > 1000 µM |  | CC(C)[C@@H]1CC[C@H](CO)[C@]12CC[C@](C)(O)[C@H]1O[C@H]12 | > 90 µM
14 | > 1000 µM |  | COC1(OC)C=C[C@@]2(CC1)C(C(C)C)=CC[C@@H]2CO | > 90 µM
15 | > 1000 µM |  | C=C1CC[C@H](C(=O)OCC)[C@@]12C=CC(=O)CC2 | > 90 µM
16 | > 1000 µM |  | C=C1C=C[C@]2(CC1)[C@@H](C(=O)OCC)CC[C@H]2C(C)C | > 90 µM
17 | > 1000 µM |  | CC(C)C1=CC[C@H](C(=O)O)[C@@]12C=CC(=O)CC2 | > 90 µM
18 | > 1000 µM |  | CC(C)[C@@H]1CC[C@H](CO)[C@]12CC[C@@](C)(O)[C@@H](O)C2 | > 90 µM
19 | > 1000 µM | > 1000 µM | CC(C)C1=CC[C@H](CSc2ccc3ccccc3c2)[C@@]12C=CC(=O)CC2 | > 90 µM
20 | > 1000 µM |  | CC(C)C1=CC[C@H](CO)[C@]12CC[C@](C)(O)[C@@H](O)C2 | > 90 µM
21 | > 1000 µM | > 1000 µM | CC(C)C1=CC[C@H](Cn2cc(CN(c3ncccn3)S(=O)(=O)c3ccc(N)cc3)nn2)[C@@]12C=CC(=O)CC2 | > 90 µM

Row | IC50 [1] | IC50 [3] | SMILES | EC50 [2]
22 | > 1000 µM |  | O=C1CC[C@@]2(c3ccccc3C[C@@H]2CO)[C@@H]2O[C@H]12 | > 90 µM
23 | > 1000 µM | > 1000 µM | CC(C)C1=CC[C@H](C(=O)NCc2cc(F)cc(F)c2)[C@@]12C=CC(=O)CC2 | > 90 µM
24 | > 1000 µM | > 1000 µM | CC(C)C1=CC[C@H](CS(=O)(=O)c2nc3ccccc3o2)[C@@]12C=CC(=O)CC2 | > 90 µM
25 | > 1000 µM | > 1000 µM | COc1ccc(S(=O)(=O)NCc2cn(C[C@H]3CC=C(C(C)C)[C@]34C=CC(=O)CC4)nn2)cc1 | > 90 µM
26 | > 1000 µM |  | CCOC[C@H]1CC=C(C(C)C)[C@]12C=CC(=O)CC2 | > 90 µM
27 | > 1000 µM |  | CC(C)[C@@H]1CC[C@@H]2CO[C@@H]3C[C@](C)(O)CC[C@]231 | > 90 µM
28 | > 1000 µM |  | CC(C)C1=CC[C@H]2C(=O)O[C@@H]3CC(=O)CC[C@@]132 | > 90 µM
29 | > 1000 µM | > 1000 µM | CC(C)C1=CC[C@H](Cn2cc(CNC(=O)OC(C)(C)C)nn2)[C@@]12C=CC(=O)CC2 | > 90 µM
30 | > 1000 µM |  | O=C1C=C[C@@]2(CC1)C(c1ccccc1)=CC[C@@H]2CO | > 90 µM
31 | > 1000 µM |  | CC1=CC(=O)[C@@]2(CC1)C(C(C)C)=CC[C@@H]2CO[Si](C)(C)C(C)(C)C | > 90 µM
32 | > 1000 µM |  | CCOC(=O)[C@H]1CC=C(C(C)C)[C@]12C=CC(=O)[C@@H](OC(C)=O)C2 | > 90 µM
33 | > 1000 µM |  | O=C1C=C[C@@]2(CC1)C(COCc1ccccc1)=CC[C@@H]2CO | > 90 µM
34 | 94 µM | > 1000 µM | CC(C)C1=CC[C@H](C(=O)NCC2CCC3CC2C3(C)C)[C@@]12C=CC(=O)CC2 (stereo partly specified) | > 90 µM
35 | > 1000 µM |  | CC(C)C1=CC[C@H](CO[Si](C)(C)C(C)(C)C)[C@]12CC[C@@]1(O[Si](C)(C)C(C)(C)C)O[C@H]1C2 | > 90 µM
36 | > 1000 µM | > 1000 µM | CCCCCCSc1nnc(SC[C@H]2CC=C(C(C)C)[C@]23C=CC(=O)CC3)s1 | > 90 µM
37 | 121 µM | > 1000 µM | CCCCCCSc1nnc(S(=O)(=O)C[C@H]2CC=C(C(C)C)[C@]23C=CC(=O)CC3)s1 | > 90 µM
38 | > 1000 µM | > 1000 µM | CC(C)C1=CC[C@H](CSc2nnnn2-c2ccccc2)[C@@]12C=CC(=O)CC2 | > 90 µM
39 | > 1000 µM | > 1000 µM | CC(C)C1=CC[C@H](CS(=O)(=O)c2nc3ccccc3s2)[C@@]12C=CC(=O)CC2 | > 90 µM
40 | 122 µM | > 1000 µM | CC(C)C1=CC[C@H](C(=O)Nc2ncc(-c3ccc(Cl)cc3)s2)[C@@]12C=CC(=O)CC2 | > 90 µM
41 | > 1000 µM |  | C=C1CC[C@]2(C[C@@H]1OC(C)=O)[C@@H](C(=O)OCC)CC[C@H]2C(C)C | > 90 µM
42 | 8 µM | > 1000 µM | CC(C)C1=CC[C@H](CS(=O)(=O)c2ccc3ccccc3c2)[C@@]12C=CC(=O)CC2 | > 90 µM

Row | IC50 [1] | IC50 [3] | SMILES | EC50 [2]
43 | > 1000 µM |  | CCOC(=O)[C@H]1CC[C@@H](C(C)C)[C@]12C=CC(O)[C@@H](OC(C)=O)C2 (single isomer, unassigned) | > 90 µM
44 | > 1000 µM | > 1000 µM | CC(C)C1=CC[C@H](CSc2nc3ccccc3s2)[C@@]12C=CC(=O)CC2 | > 90 µM
45 | 245 µM | > 1000 µM | CC(C)C1=CC[C@H](CS(=O)(=O)c2nnnn2-c2ccccc2)[C@@]12C=CC(=O)CC2 | > 90 µM
46 | > 1000 µM |  | CC(C)C1=CC[C@H](CO)[C@@]12C=C[C@](C)(O)CC2 | > 90 µM
47 | > 1000 µM |  | CC(C)C1=CC[C@H](CO)C12CCC(=O)CC2 | > 90 µM
48 | 33 µM | > 1000 µM | CCn1c2ccccc2c2nnc(SC[C@H]3CC=C(C(C)C)[C@]34C=CC(=O)CC4)nc21 | > 90 µM
49 | > 1000 µM |  | CC(C)C1=CC[C@H](C(N)=O)[C@@]12C=CC(=O)CC2 | > 90 µM
50 | > 1000 µM | > 1000 µM | CC(C)C1=CC[C@H](CN2C(=O)c3ccccc3C2=O)[C@@]12C=CC(=O)CC2 | > 90 µM
51 | > 1000 µM |  | CC(C)C1=CC[C@H](CO)[C@@]12C=CC(=O)CC2 | > 90 µM
52 | > 1000 µM |  | CC(C)C1=CC[C@H](CO)[C@]12CCC(=O)[C@H]1O[C@H]12 | > 90 µM
53 | > 1000 µM |  | CCOC(=O)[C@H]1CC[C@@H](C(C)C)[C@]12CCC(=O)[C@@H](OC(C)=O)C2 | > 90 µM
54 | > 1000 µM | > 1000 µM | CC(C)C1=CC[C@H](C(=O)NCCc2cccs2)[C@@]12C=CC(=O)CC2 | > 90 µM
55 | > 1000 µM |  | CC(C)C1=CC(=O)[C@H](CO[Si](C)(C)C(C)(C)C)[C@@]12C=C[C@](C)(O)CC2 | > 90 µM
56 | > 1000 µM |  | CC(C)C1=CC[C@H](CO)[C@]12CC[C@@](C)(O)C[C@H]2O | > 90 µM
57 | > 1000 µM |  | CC(C)C1=CC[C@H](CO)[C@]12CC[C@](C)(O)[C@H]1O[C@H]12 | > 90 µM
58 | 85 µM | > 1000 µM | CC(C)C1=CC[C@H](C(=O)NC(C)C23CC4CC(CC(C4)C2)C3)[C@@]12C=CC(=O)CC2 (stereo partly specified) | > 90 µM
59 | 74 µM | > 1000 µM | CCn1c2ccccc2c2nnc(S(=O)(=O)C[C@H]3CC=C(C(C)C)[C@]34C=CC(=O)CC4)nc21 | > 90 µM
60 | > 1000 µM |  | CC(C)[C@@H]1CC[C@@H]2CO[C@@H]3[C@H](O)[C@](C)(O)CC[C@]231 | > 90 µM
61 | > 1000 µM |  | CC(C)[C@@H]1CC[C@H](CO)[C@]12CC[C@@](C)(O)C[C@H]2O | > 90 µM

Row | SMILES | IC50 [1] | IC50 [3] | EC50 [2]
62 | C[C@H]1CC[C@@]2(c3ccccc3C[C@@H]2C(=O)O)[C@H](O)[C@@H]1O | > 1000 µM |  | > 90 µM
63 | CC1=CC[C@@]2(c3ccccc3C[C@@H]2C(=O)O)[C@H](O)[C@@H]1O | > 1000 µM |  | > 90 µM
64 | O=C1C=C[C@@]2(CC1)c1ccccc1C[C@@H]2C(=O)O | > 1000 µM |  | > 90 µM
